{
  "source": "patent US11311609B2",
  "about": "“Regulating chimeric antigen receptors” (DANA-FARBER CANCER INSTITUTE, INC., priority 2017, dated 2022)",
  "key": {"[1]": {"system": "proteins fused to mutant FKBP* with an HA tag", "test": "Immunoblot of dTAG fusion proteins in MV4;11 leukemia cells", "format": "cell-based", "conditions": "indicated concentrations, 16 hours", "experimental": "FIG. 18A and FIG. 18B are immunoblots of cells treated with heterobifunctional compounds described in the present invention. Immunoblots of MV4; 11 leukemia cells expressing indicated proteins fused to mutant FKBP* with an HA tag. Cells were treated for 16 hours with indicated concentrations of FKBP* selective heterobifunctional compounds, dFKBP7 or dFKBP13 and abundance of fusion proteins measured by western immunoblot analysis. Additional experimental details are given in Example 15.\nTo test the general utility of the dTAG technology across several protein types, the indicated proteins fused to the dTAG in MV4; 11 leukemia cells were expressed. Upon treatment with the indicated dFKBP bifunctional molecules (dFKBP7 and dFKBP13), targeted protein degradation was observed as measured by western blot."}, "[2]": {"molecular_target": "T1, FKBP* (Homo sapiens, UniProt P62942, F37V)", "T1 construct": "HA; expressed in transfected cells; host or cells: 293FT cells (CRBN-WT or CRBN-/-)", "T1 sequence (P62942 whole entry F37V)": "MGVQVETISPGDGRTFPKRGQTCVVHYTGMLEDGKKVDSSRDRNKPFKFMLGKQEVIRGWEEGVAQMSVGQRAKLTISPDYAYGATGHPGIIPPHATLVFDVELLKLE", "test": "Immunoblot of FKBP* degradation in 293FT cells (CRBN-WT or CRBN-/-)", "format": "cell-based", "conditions": "4 hours", "experimental": "FIG. 6 is an immunoblot of cells treated with bi-functional molecules described in the present invention. As described in Example 3, 293FT cells (CRBN-WT or CRBN−/−) expressing either HA-tagged FKBP12WT or FKBP* (also referred to as dFKBP12* herein) were treated with indicated concentrations of dFKBP7 for 4 hours.\nFIG. 8 is an immunoblot of cells treated with heterobifunctional compounds described in the present invention. Isogenic 293FT cells (CRBN-WT or CRBN−/−) expressing either FKBP12WT or FKBP* were treated with 100 nM of either dFKBP7 or dFKBP13 for 4 hours (Example 5).\nFIG. 9 is an immunoblot of cells treated with heterobifunctional compounds described in the present invention. Isogenic 293FT cells (CRBN-WT or CRBN−/−) expressing HA-tagged FKBP* were treated with the indicated dose of dFKBP13 for 4 hours (Example 6).\nFIG. 11 is an immunoblot of cells treated with heterobifunctional compounds described in the present invention. 293FT cells (CRBN-WT) expressing FKBP* were pretreated with 1 uM Carfilzomib (proteasome inhibitor), 0.5 uM MLN4924 (neddylation inhibitor), and 10 uM Lenalidomide (CRBN binding ligand) for two hours prior to a 4 hour treatment with dFKBP13 (Example 8). Degradation of HA-tagged FKBP* by dFKBP13 was rescued by the proteasome inhibitor Carfilzomib, establishing a requirement for proteasome function.\nThe dTAG is predicated on the selectivity of FKBP* specific ligands over endogenous, wild type FKBP. In 293T cells expressing wild type FKBP12 or FKBP*, dFKBP7 induces targeted degradation only in FKBP* expressing cells. An immunoblot of cells treated with bi-functional molecules described in the present invention was performed. 293FT cells (CRBN-WT or CRBN−/−) expressing either HA-tagged FKBP12WT or FKBP* were treated with indicated concentrations of dFKBP7 for 4 hours.\nIn 293T cells expressing wild type FKBP12 or FKBP*, treatment with dFKBP7 and dFKBP13 induces targeted degradation only in FKBP* expressing cells. Isogenic 293FT cells (CRBN-WT or CRBN−/−) were engineered to express either FKBP12WT or FKBP*. Cells were treated with 100 nM of either dFKBP7 or dFKBP13 for 4 hours before lysates were prepared for western immunoblot analysis.\nIn an effort to define the optimal concentration of dFKB13 heterobifunctional compounds to induce degradation of FKBP*, degradation was measured upon treatment with increasing concentrations of dFKBP13. Isogenic 293FT cells (CRBN-WT or CRBN−/−) were engineered to expressed HA-tagged FKBP*. Cells were treated with the indicated dose of dFKBP13 for 4 hours before lysates were prepared for western immunoblot analysis.\n293FT cells (CRBN-WT) were engineered to express FKBP*. Cells were pretreated with 1 uM Carfilzomib (proteasome inhibitor), 0.5 uM MLN4924 (neddylation inhibitor), and 10 uM Lenalidomide (CRBN binding ligand) for two hours prior to a 4-hour treatment with dFKBP13. Lysates were prepared and western immunoblot analysis performed. Degradation of HA-tagged FKBP* by dFKBP13 was rescued by the proteasome inhibitor Carfilzomib, establishing a requirement for proteasome function."}},
  "data": [
    {"smiles": "CC[C@H](C(=O)N1CCCC[C@H]1C(=O)O[C@H](CCc1ccc(OC)c(OC)c1)c1cccc(OCC(=O)NCCCOCCOCCOCCCNC(=O)COc2cccc3c2C(=O)N(C2CCC(=O)NC2=O)C3=O)c1)c1cc(OC)c(OC)c(OC)c1", "note": "(stereo partly drawn) [dFKBP7]", "values": [
      {"measurement": "Degradation of proteins fused to dTAG", "setting": "[1]", "value": "degradation was observed with nanomolar concentrations"},
      {"measurement": "Degradation of HA-tagged FKBP* (immunoblot)", "setting": "[2]; 293FT cells CRBN-WT or CRBN-/-, indicated concentrations", "value": "CRBN-dependent degradation of FKBP*"},
      {"measurement": "Degradation of FKBP* (immunoblot)", "setting": "[2]; isogenic 293FT cells CRBN-WT or CRBN-/-, 100 nM", "value": "CRBN-dependent degradation of FKBP*"}
    ]}
  ]
}
